How the values were obtained:
[1] = test system: Progesterone receptor mRNA; test: Progesterone receptor mRNA regulation in the preoptic area of the rat brain; type: in vivo; conditions: 10 mg/kg
[2] = test system: ovulation (number of oocytes ovulated); test: Ovulation inhibition test procedure; type: in vivo; conditions: 50 mg/kg
Excerpt: The test procedure is used to determine whether test compounds can inhibit or change the timing of ovulation. It can also be used to determine the number of oocytes ovulated [Lundeen, et al., J Steroid Biochem Mol Biol 78: 137-143 (2001)]. The following data were obtained from representative metabolites of compounds from the invention (Table 22).

[3] = Cytosolic incubation in the presence of PAPS (sulfation), rat; type: in vitro ADME
Method: These pilot incubations (1.0 mL incubation volume) were conducted using a substrate concentration of 100 μM ERB-041 at 37° C. for 60 mins. Incubations were terminated by the addition of an equal volume of chilled acetonitrile. Large-scale incubations (a total of 60 incubations @ 1.0 mL incubation volume) to generate sufficient quantities of the sulfate metabolites for structure elucidation were subsequently conducted as described above at 37° C. for 60 mins. Appropriate substrate controls and incubations without addition of PAPS were conducted. Additional incubations (a total of 120 @ 2.0 mL incubation volume, 50 μM ERB-041) were also conducted in a similar manner to isolate sufficient amounts of ERB-041-sulfates to enable full structural identification. Reserved phase-HPLC was utilized for all metabolite analysis. To confirm the formation of glucuronide and sulfate conjugates of ERB-041 in pilot scale incubations, HPLC analysis was performed using an Agilent 1100 LC system equipped with a diode array detector (Agilent Technologies, Wilmington, Del.). […] Rat liver and human liver cytosol incubations produced similar profiles. […] Further confirmation of the identity of the isolated metabolites […] and M9 from the large-scale incubations was obtained using LC-MS analysis (ESI, negative ionization). […]

Lewis rats = test: Lewis rat adjuvant-induced arthritis, treatment protocol: joint score (maximal score per day 12); type: in vivo; conditions: s.c. daily, begun Day 8 after adjuvant
Female Mongolian gerbils = test: Transient global ischemia in the Mongolian gerbil: neurogranin mRNA in hippocampus; type: in vivo; conditions: gerbil hippocampus after 5 min global ischemia; s.c. daily
Method: Transient global ischemia in the Mongolian gerbil. The effect of test compounds on preventing or treating brain injury in response to oxygen deprivation/reperfusion were measured using the following test procedure.
Female Mongolian gerbils (60-80 g; Charles River Laboratories, Kingston, N.Y.) were housed in the Wyeth-Ayerst animal care facility Association for Assessment and Acreditation of Laboratory Animal Care (AAALAC) certified with a 12-hour light, 12-hour dark photoperiod and free access to tap water and a low-estrogen casein diet (Purina®; Richmond, Ind.). After acclimation (3-5 days), gerbils were anesthetized with isoflurane (2-3% mixture with O2), ovariectomized (Day 0). […] On Day 6, gerbils (n=4-5/group) were anesthetized with isoflurane, the common carotid arteries visualized via a mid-line neck incision and both arteries simultaneously occluded for 5 minutes with non-traumatic micro aneurysm clips. […]
The degree of neuronal protection was evaluated by in situ hybridization analysis of neurogranin mRNA. […]
Neurogranin mRNA was selected for these studies because it is highly expressed in the hippocampal neurons including CA1, but absent in glia and other cell types present in this brain region. […] The results from 6 sections (40 μm apart) per animal were averaged and statistically evaluated. […]

[4] = Cytosolic incubation in the presence of PAPS (sulfation), human; type: in vitro ADME; conditions: 100 μM, 37° C., 60 mins, with PAPS; human liver cytosol
Method: These pilot incubations (1.0 mL incubation volume) were conducted using a substrate concentration of 100 μM ERB-041 at 37° C. for 60 mins. Incubations were terminated by the addition of an equal volume of chilled acetonitrile. Reserved phase-HPLC was utilized for all metabolite analysis. To confirm the formation of glucuronide and sulfate conjugates of ERB-041 in pilot scale incubations, HPLC analysis was performed using an Agilent 1100 LC system equipped with a diode array detector (Agilent Technologies, Wilmington, Del.). […] Rat liver and human liver cytosol incubations produced similar profiles. […] Further confirmation of the identity of the isolated metabolites […] and M9 from the large-scale incubations was obtained using LC-MS analysis (ESI, negative ionization). In the large-scale incubation, approximately 23% of ERB-041 was converted to the two sulfate conjugates. Separation of the two sulfate metabolites was achieved using gradient solvent system C described supra.

Structure (SMILES): Oc1cc(Br)c2oc(-c3ccc(O)c(F)c3)nc2c1 [Example 21, 7-BROMO-2-(3-FLUORO-4-HYDROXYPHENYL)-1,3-BENZOXAZOL-5-OL]
- Progesterone receptor mRNA (mean ± stdev) [1]: 110.5 ± 19.3 arbitrary units

Structure (SMILES): C=Cc1cc(O)cc2nc(-c3ccc(O)c(F)c3)oc12 [Example 24, 2-(3-FLUORO-4-HYDROXYPH ENYL)-7-VI NYL-1,3-BENZOXAZOL-5-OL]
- Number of oocytes (mean ± SEM) [2]: 13.86 ± 0.77
- Metabolites detected ([3]; 100 μM, 37° C., 60 mins, with PAPS, rat liver cytosol): two metabolites (M9A and M9) were detected
- converted to the two sulfate conjugates ([3]; large-scale incubation with PAPS): approximately 23%
- Joint inflammation score (Lewis rats; table Day 1): 11.33
- Joint inflammation score (Lewis rats; table Day 2): 11.15
- Joint inflammation score (Lewis rats; table Day 3): 11.33
- Joint inflammation score (Lewis rats; table Day 4): 9.50
- Joint inflammation score (Lewis rats; table Day 5): 8.00
- Joint inflammation score (Lewis rats; table Day 6): 7.00
- Joint inflammation score (Lewis rats; table Day 7): 5.83
- Joint inflammation score (Lewis rats; table Day 8): 4.83
- Joint inflammation score (Lewis rats; table Day 9): 3.50
- Joint inflammation score (Lewis rats; table Day 10): 3.83
- Joint inflammation score (Lewis rats; table Day 11): 3.83
- Joint inflammation score (Lewis rats; table Day 12): 3.83
- Joint inflammation score (Lewis rats; table Day 13): 3.16
- Joint inflammation score (Lewis rats; table Day 14): 3.16
- Joint inflammation score (Lewis rats; table Day 15): 2.83
- Joint inflammation score (Lewis rats; table Day 16): 2.83
- Joint inflammation score (Lewis rats; table Day 17): 2.00
- Neurogranin mRNA (mean ± stdev) (Female Mongolian gerbils): 0.0 arbitrary units
- Metabolites detected [4]: two metabolites (M9A and M9) were detected
